Active and inactive are the calls of the source. The calls are words filed in the database; no cut-off is given here.
Columns and labels:
[1] = The compound was evaluated for cellular toxicity against [3H]thymidine incorporation into DNA of uninfected mouse L-cells; assay type: functional
[2] = system: Vaccinia virus; test: The compound was tested for inhibitory activity against vaccinia virus replication; assay type: functional; settings: Orthopoxvirus vaccinia; read-out: ID50 (the source's name)
[3] = system: Vaccinia virus; test: The compound was tested for inhibitory activity against vaccinia virus replication; NA=Not active; assay type: functional, organism-based; settings: Orthopoxvirus vaccinia

SMILES | [3H]thymidine incorporation, % of control [1] [%] | IC50 [2] [µM] | ID50 [3]
Nc1ncnc2c1ncn2[C@@H](C=O)O[C@@H](C=O)CO | 8.3 | 0.3 | –
C=C(CO)OC(=C)n1cnc2c(N)ncnc21 | 104 | 30 | –
Nc1ncnc2c1ncn2C1COCC(CO)O1 (stereo not drawn) | 95 | – | inactive
Nc1nc(O)c2ncn(C3COCC(CO)O3)c2n1 (stereo not drawn) | 99 | – | inactive
